Laboratory results as given in patent publication US20250339531A1, “DUX4 POLYPEPTIDES AND NUCLEIC ACIDS FOR TREATING INFLAMMATORY AND AUTOIMMUNE CONDITIONS” (Fred Hutchinson Cancer Center, priority 2021, published 2025).
Entries after “also recorded” stand apart in the source; their conditions may differ.

Columns and labels:
[1] = test system: de novo protein synthesis; test: [35S]-methionine/cysteine metabolic labeling of nascent protein synthesis; type: cell-based; conditions: human myoblasts, 20-92 h after 4 h doxycycline pulse
Procedure: Cells were treated with and without a 4-hour pulse of doxycycline. Eight hours prior to harvest, cells were incubated in DMEM depleted for methionine and cysteine (Gibco) supplemented with 90 microcurie 35S-methionine/cysteine (Perkin Elmer) and 50 ng/ml […] (R&D Systems). Protein samples were harvested in RIPA buffer [150 mM NaCl, 1% NP-40, 0.5% Na-deocycholate, 1% SDS, 25 mM Tris-HCl pH7.4] supplemented with protease and phosphatase inhibitor tablets (Pierce), followed by sonication in Diagenode Bioruptor. Lysate was cleared by centrifugation at 16000×g and quantified using a Pierce BCA assay (Thermo Scientific). Samples were run on NuPAGE precast polyacrylamide gels (Invitrogen). Gels were stained with InstantBlue Coomassie (Abcam) following manufacturer protocol, placed on whatman paper, wrapped in plastic wrap, and dried. Gels were exposed to phosphor screen, imaged on Typhoon Trio imager, and analyzed with ImageQuant.

[2] = test system: translational efficiency (TE); test: Ribosome footprinting (Ribo-seq) paired with RNA-seq; type: cell-based, human; conditions: DUX4 pulse+IFNG versus IFNG, 68 hours
Procedure: Ribo-seq was performed as described previously (Calviello et al., 2016) using two 70% confluent 15 cm plates of MB135iDUX4 myoblasts per treatment condition (n=3). MB135iDUX4 myoblasts were pulsed with or without doxycycline for 4 hours, incubated for 48 hours, supplemented with or without 50 ng/mL IFNG for 16 hours, and harvested at a terminal time point of 68 hours. To harvest, media was aspirated and each 15 cm plate of adherent cells was rinsed with 25 mL ice-cold PBS supplemented with 100 μg/mL cycloheximide (Sigma). After thorough removal of the PBS, plates were immersed in liquid nitrogen and placed on dry ice. Cells were lysed in mammalian polysome lysis buffer (20 mM Tris-HCl, pH 7.4, 150 mM NaCl, 5 mM MgCl2, 1 mM DTT, 100 μg/mL cycloheximide added fresh) supplemented with 1% Triton X-100 and 25 U/ml Turbo DNase (Ambion), transferred to wet ice, harvested by scraping and further lysed by trituration ten times through a 26-gauge needle. Lysates were cleared by centrifugation at 20,000×g for 10 min at 4° C., flash frozen in liquid nitrogen, and stored at −80° C. To isolate ribosome-protected RNA fragments, lysates were thawed, digested with 2.5 U/μL RNase I (Ambion) for 45 minutes at room temperature with gentle mixing, and treated with 0.65 U/μL SUPERaseIn RNase Inhibitor (Thermo Fisher Scientific) to stop nuclease activity. Ribosome complexes were isolated using MicroSpin S-400 HR Columns (GE Healthcare) and RNA extracted using the Direct-zol RNA Miniprep Kit (Zymo Research). The rRNA Removal Mix—Gold component of Illumina's TruSeq Stranded Total RNA Library Prep Gold kit was used to deplete rRNAs. Samples were precipitated using GlycoBlue Coprecipitant (Ambion) as carrier, 0.1 volume 3M sodium acetate and 3 volumes 100% Ethanol, incubated at −80° C. overnight, centrifuged for 45 minutes at 20,000×g at 4° C., and RNA pellet dissolved in nuclease-free ultrapure water. Ribosome-protected fragments were isolated by running samples on a 15% TBE-Urea gel with 10 bp DNA Ladder (Promega) and Marker-27nt and Marker-30nt (data not shown). […]

[3] = test system: IFIH1, DDX58, cGAS and Type-1 IFN pathways; test: ISG induction by IFNβ, poly(I:C), RIG-I ligand or cGAMP, RT-qPCR in MB135-iDUX4 cells; type: cell-based, human; conditions: MB135iDUX4 cells ± doxycycline
Procedure: All myoblast experiments were conducted in immortalized MB135 or MB200 myoblast cell lines (isolated from a control or FSHD2 subject, respectively cultured in Ham's F-10 Nutrient Mix (Gibco) supplemented with 15% fetal bovine serum (Hyclone), 100 U/100 μg/ml penicillin/streptomycin (Gibco), 1 μM dexamethasone (Sigma), and 10 ng/ml recombinant human basic fibroblast growth factor (PeproTech). To differentiate the myoblasts to myotubes, media was changed to DMEM supplemented with 10 μg/ml insulin (Sigma) and 10 μg/ml transferrin (Sigma). Cell lines containing doxycycline-inducible transgenes were additionally cultured with 2 μg/mL puromycin (Sigma). Transgenes were induced with 1 μg/mL of doxycycline (Sigma) for 4 hours prior to other treatments for a total of 20 hrs. The Kitra-SRS cells (RRID:CVCL_YI69) were provided by Dr. H. Otani and Osaka University (Nakai et al., 2019) and were cultured in DMEM supplemented with 10% fetal bovine serum (Hyclone) and 100 U/100 μg/ml penicillin/streptomycin (Gibco). Biological replicates consisted of independent but parallel experiments, such as simultaneously stimulating three cell culture plates with IFNγ. Technical replicates consisted of repeat measurements of the same biological sample, such as loading the same biological sample in triplicate for analysis by RT-qPCR. […]

## DUX4: human DUX4 protein SEQ ID NO:3 expressed from doxycycline inducible codon altered transgene SEQ ID NO:2
[1]
  nascent protein synthesis by 35S labeling: global de novo protein synthesis was transiently reduced
[1]; listed as wildtype DUX4
  nascent protein synthesis by 35S labeling: a reduction in labeled nascent proteins several days following a pulse
[2]
  transcripts with significantly reduced TE at the 5′UTR: 26.7%
  transcripts with significantly reduced TE at the TSS: 13.9%
  transcripts with significantly reduced TE within the first exon: 4.3%
[3]
  suppression of ISG induction by innate immune stimuli (poly(I:C), short dsRNA/RIG-I ligand, cGAMP, IFNβ): blunted the induction of these genes by each of the stimulated pathways; also recorded: substantially blunted the ISG induction to all treatments; also recorded: pathways that rely on IRFs and STATs are both blocked; also recorded: suppressed the induction of a subset of the panel of ISG genes induced by each ligand; also recorded: CXCL9 was induced by IFNβ, poly(I:C), and the RIG-I ligand but not suppressed by DUX4
